Test results as given in patent US12331042B2, “Compounds suitable for the treatment and prophylaxis of muscle wasting and other conditions” (priority 2019, dated 2025).
“Also recorded” adds a separate entry of the source.

Tests used:
MuRF1 E3 ligase activity = MuRF1 E3 ligase activity (Homo sapiens, UniProt Q969Q1); experiment: Inhibition of MuRF1 E3 ligase activity (ubiquitination, Western blot); type: biochemical; details: 20-100 μmol/L compound, 1 h at 37° C., based on ubiquitination patterns
Sequence of MuRF1 E3 ligase activity (Q969Q1 whole entry): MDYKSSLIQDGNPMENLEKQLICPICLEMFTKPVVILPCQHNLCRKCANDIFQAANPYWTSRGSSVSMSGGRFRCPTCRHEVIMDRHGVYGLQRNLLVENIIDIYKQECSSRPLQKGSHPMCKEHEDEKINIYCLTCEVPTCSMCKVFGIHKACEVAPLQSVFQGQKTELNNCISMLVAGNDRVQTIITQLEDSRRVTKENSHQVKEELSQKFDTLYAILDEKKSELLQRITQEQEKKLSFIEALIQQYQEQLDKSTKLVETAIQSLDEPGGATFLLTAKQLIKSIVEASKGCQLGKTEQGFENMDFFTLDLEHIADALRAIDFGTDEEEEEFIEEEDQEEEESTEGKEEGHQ
Protocol: Compounds were then assessed for effects on MuRF1 E3 ligase activity directed to titin or to MuRF1 itself (self-ubiquitination) by mixing 75 nmol/L UBE1 (Boston Biochem), 1 μmol/L UbcH5c (Boston Biochem), 100 μmol/L Ubiquitin, 4 mmol/L ATP, 100 nmol/L Titin A168-170 with 20-100 μmol/L of respective compounds. Reactions were started by addition of 220 nmol/L MuRF1, followed by 1 h at 37° C., SDS PAGE and Western blot analysis with MuRF1 and titin specific antibodies. All reactions also included 5% DMSO.

ICR-DIO male mice = experiment: Glucose and insulin regulation in DIO mice (fasting glucose, OGTT, ITT); type: in vivo
Source text: Analogously to example 2.7, diabetes was induced by a high-fructose high-fat diet (HFD) for 4 months in DIO mice. The mice developed increased fasting glucose and insulin resistance. Control group animals received a normal rodent diet (regular diet). Weight loss was then induced during a 30 days test period. In a first stage, the animals were fed normal rodent diet for 16 days. Then in a second stage the animals received a low-calory diet for 14 days. Two days after start of the first stage, the diet was supplemented with MyoMed-203 (at 1 g compound/1 kg food).
Test design: ICR-DIO male mice were randomly assigned to groups of 8-10 animals each. Three control groups were included: Control group of mice without obesity (control; regular diet (RD); n=10), obese mice fed with high-fructose high-fat diet during the entire study period (DIO HFD; n=8); and obese mice with initiated weight loss (DIO control; n=8).
Determining the level of blood glucose was performed after 6-hour fasting. An On Call Plus glucometer (Acon Laboratories, Inc., USA) and specific test strips (REF G133-111) were used for determination of glucose levels. Blood was obtained from the tail vein by incision of the tail tip. 5-6 μl of blood were used for each assay.
For oral glucose tolerance test (OGTT), mice were orally treated with glucose at dose of 2 g/kg at the dose volume of 10 ml/kg after a 6-hour fasting. Glucose measurements were performed immediately before treatment and at 15, 30, 60 and 120 min after glucose administration. The AUC describing the rate of blood glucose output in each mouse during the test was calculated using the formula: […]
For insulin tolerance test (ITT), mice were injected intraperitoneally with recombinant human insulin solution (Lilly, France; REF C620001K) at the dose of 0.75 or 0.60 IU/[…] of body weight in the volume of 5 ml/kg after 6-hour fasting. Glucose measurements were performed immediately before treatment and at 15, 30, 60 and 120 min after insulin administration. The results of the rate of blood glucose output were expressed as area under the curve (AUC).

[1] = tested on: monocrotaline (MCT)-treated C57BL/6 mice; experiment: Pulmonary hypertension mouse model, test series 2; type: in vivo; details: MCT+compound (0.1 weight-% in chow) vs MCT, 8 weeks
Protocol: The test series 2 were performed analogous to test series 1. Briefly, Three groups of mice were included in this study: 1) saline-treated mice (sham; n=10); 2) monocrotaline (MCT)-treated mice fed with normal chow (MCT; n=10); and 3) MCT-treated mice fed with MuRF1 inhibitor chow (MCT+compound; n=10 for each compound). 8 weeks old C57BL/6 mice were subcutaneously injected weekly with either MCT (600 mg/kg) or a matched volume of saline for 8 weeks. The MCT+compound group started receiving the inhibitor chow 1 week prior to the MCT injections, whereas the sham and MCT groups were fed an identical chow but without the addition of the selected compound. The compound concentration in the chow was 0.1 weight-%, resulting in a daily compound intake per mouse of about 3 mg. Body weight was recorded every week for each mouse. Mice were sacrificed after 8 weeks treatment. At sacrifice, examination and tissue analysis were performed as described in test series 1.

SMILES	inhibition of MuRF1 E3 ligase activity (MuRF1 E3 ligase activity)	blood glucose level after 6-hour fasting (ICR-DIO male mice; 1 g compound/1 kg food, vs DIO control, throughout the treatment period)	hypoglycemic effect according to OGTT (ICR-DIO male mice; after 14 days of weight loss and treatment)	blood glucose at 30 minutes of OGTT (ICR-DIO male mice; day 14, vs DIO control)	OGTT calculated area under the glucose elimination curve (ICR-DIO male mice; day 28)	glucose level at 120 min of OGTT (ICR-DIO male mice; day 28, vs all control groups)	glucose level at 120 minutes after insulin injection (ITT) (ICR-DIO male mice; vs all control groups)	loss of skeletal muscle mass (EDL, TA wet weight; diaphragm maximum force) [1]	right ventricle hypertrophy [1]
CNC(=O)NC(=O)C(C)OC(=O)c1ccc(COc2ccc3c(C)cc(=O)oc3c2)cc1 (stereo not shown) [MyoMed-946-8, [1-methyl-2-(methylcarbamoylamino)-2-oxo-ethyl] 4-[(4-methyl-2-oxo-chromen-7-yl)oxymethyl]benzoate]	significantly inhibit MuRF1 E3 ligase activity								
Cc1cc(=O)oc2cc(OCc3ccc(C(=O)OC(C)C(=O)NC(N)=O)cc3)ccc12 (stereo not shown) [MyoMed-946-5, (1-methyl-2-oxo-2-ureido-ethyl) 4-[(4-methyl-2-oxo-chromen-7-yl)oxymethyl]benzoate]	significantly inhibit MuRF1 E3 ligase activity								
Cc1cc(=O)oc2cc(OCc3ccc(C(=O)OCC(=O)NC(=O)NCc4ccccn4)cc3)ccc12 [MyoMed-203, [2-oxo-2-(2-pyridylmethylcarbamoylamino)ethyl] 4-[(4-methyl-2-oxo-chromen-7-yl)oxymethyl]benzoate]		significantly lower	mild hypoglycemic effect	tended to be lower	tended to be lower	significant decrease in the glucose level	significant decrease of glucose level	most pronounced effect	attenuated; also recorded: attenuate the development of right ventricle hypertrophy
